This passage reports TGI and GI50 results from PubChem BioAssay (NCI).

Common to all, as to test: inhibition of tumour cell growth, NCI panel, 48 h
Assay [1] concerns DLD-1 colon.
Assay [2] deals with DMS 114 small cell lung.
The subject of assay [3] is HCT-15 colon.
For assay [4], the system named is K-562 leukemia.
Assay [5] relates to M14 melanoma.
Assay [6] relates to RPMI-8226 leukemia.
The subject of assay [7] is UO-31 renal.
Assay [8] relates to A498 renal.
Assay [9] has as its system DU-145 prostate.
Assay [10] deals with MDA-MB-231 breast.

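Five compound concentrations were applied to cells in 96-well plates for 48 hours; endpoints were derived by simple linear interpolation of the resulting dose-response curve. GI50 = concentration required for 50% inhibition of growth. TGI: concentration producing complete growth inhibition.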 Bounds are passed on as bounds.

With `COC1=CC(=O)C(Br)=CC1=O`, the TGI in assay [1] is over 100 µM; in assay [2] it was 35.5 µM; in [3], 47 µM; in assay [4], 9.1 µM; in assay [5], 33.5 µM; in assay [6] it was 50.6 µM. The TGI in assay [7] turned out to be 31.7 µM.
Turning to `COc1cc(O)c(C(=O)CC(C)=O)c(OC)c1`, the TGI in assay [1], in [2], in assay [4], in assay [5], in assay [6] and in assay [7] was over 100 µM throughout.
`CSC(=Nc1ccccc1Cl)NC(=O)c1ccc(Br)cc1`: the TGI in [1] was over 100 µM; in [2], over 100 µM; in assay [3] it was over 100 µM; in assay [4] it was 45 µM; in [5], over 100 µM; in [6], over 100 µM. The TGI in [7] was over 100 µM.
For `NCCOCn1cc(Cc2cccc(OCc3ccccc3)c2)c(=O)[nH]c1=O`, the TGI in [1], in assay [2], in assay [3], in assay [4], in assay [5] and in [6] was over 100 µM each time. In addition, in assay [7], the TGI is over 100 µM.
Consider `CC(C)=O.O=C([O-])C(F)(F)F.O=C([O-])C(F)(F)F.O=C([O-])C(F)(F)F.O=C([O-])C(F)(F)F.[Rh+2].[Rh+2]`, for which the GI50 in [1] was over 100 µM; in assay [2], 26.8 µM; in assay [3], over 100 µM; in assay [4], 31.8 µM; in [5], over 100 µM; in assay [6], 33.2 µM. The GI50 in [7] was over 100 µM. The TGI in assay [1] was over 100 µM; in assay [2], 90.3 µM; in assay [3], over 100 µM; in assay [4], over 100 µM; in assay [5], over 100 µM; in assay [6], over 100 µM. In [7], this molecule gave a TGI of over 100 µM.
For the molecule `O=C(Nc1cc(Cl)ccc1Cl)c1cc2cccc(Br)c2oc1=O`, the TGI in [1], in assay [2], in assay [3], in assay [4], in assay [5] and in [6] was over 100 µM each time. The same molecule registered a TGI in [7] of over 100 µM.
In the case of `S=c1nc(C(c2ccccc2)c2ccccc2)[nH][nH]1`, the TGI in assay [8], in assay [1], in [2], in [3], in [4] and in assay [7] was over 100 µM each time.
For `COc1ccc2c3c(c(C(=O)O)oc13)CCC2`, the TGI in assay [1], in assay [2], in assay [3], in assay [4], in assay [5] and in [6] was over 100 µM in each case. Moreover, the TGI in assay [7] was over 100 µM.
As to `Oc1[nH]c(N=C2N=c3ccccc3=N2)c2ccccc12`, the GI50 in assay [8] is 6.31 µM; in assay [9] it was 10.3 µM; in [3], 3.54 µM; in assay [4] it was 9.86 µM; in assay [5], 12.2 µM; in assay [10], 15.2 µM. Further, the GI50 is 14.9 µM in [6] and 4.58 µM in [7]. Moreover, the TGI is 19.9 µM in assay [8]; 22.6 µM in assay [9]; over 100 µM in assay [3]; over 100 µM in [4]; 38.8 µM in assay [5]; 46.2 µM in assay [10]. In addition, the TGI stood at 72.1 µM in assay [6] and 18.6 µM in [7].
Consider `CC(CN(C)C)S(=O)(=O)c1ccc(-c2cnc(N)c(C(=O)Nc3ccccc3)n2)cc1` (configuration not stated), for which the GI50 was 2.41 µM in assay [8]; 4.56 µM in [9]; 2.91 µM in assay [3]; 3 µM in assay [4]; 4.06 µM in [5]; 10.6 µM in assay [10]. Moreover, the GI50 was 13.8 µM in [6] and 4.78 µM in [7]. The TGI in [8] was 9.02 µM; in [9], over 49.8 µM; in assay [3] it was 13.4 µM; in assay [4] it was 22 µM; in assay [5] it was 21.9 µM; in [10], 27.6 µM. Further, the values for the TGI in assay [6] and in [7] were 48.9 µM and 28.7 µM, respectively.
Consider `Nc1ncnc2c1c(-c1ccc(Oc3ccccc3)cc1)nn2C[C@H]1SSC[C@@H]1O`, for which the GI50 in assay [8] is 1.66 µM; in [9], 1.7 µM; in assay [3], 0.622 µM; in assay [4], 0.342 µM; in [5], 0.071 µM; in assay [10], 0.934 µM. The values for the GI50 in [6] and in [7] were 4.2 µM and 1.68 µM, respectively. The TGI in assay [8] turned out to be 4.44 µM; in assay [9], 10.6 µM; in assay [3], 16.4 µM; in assay [4], 4.08 µM; in assay [5], 0.206 µM; in assay [10], 7.84 µM. The TGI in [6] amounted to 20.4 µM; in assay [7] it was 5.7 µM.
As for `Cc1cc(C)nc(NS(=O)(=O)c2ccc(Nc3c4ccccc4nc4c(C(=O)Nc5ccc(S(=O)(=O)Nc6cc(C)on6)cc5)ccc(Cl)c34)cc2)n1`, the TGI was 38.3 µM in assay [8]; 33.3 µM in assay [1]; over 100 µM in assay [3]; over 100 µM in assay [4]; 44 µM in [5]; 57.8 µM in assay [6]. In assay [7], this molecule came in with a TGI of 45.3 µM.
Turning to `O=P(O)(O)OCC1OC(n2cnc3c(NCc4ccco4)ncnc32)C(O)C1O` (configuration not stated), the GI50 in assay [8] is 3.32 µM; in assay [9], 0.57 µM; in assay [3] it was 0.701 µM; in assay [4], 3.01 µM; in [5] it was 3.55 µM; in [10], 0.479 µM. In addition, the GI50 in assay [6] was 0.298 µM; in [7], 0.993 µM. The TGI in assay [8] was 11.7 µM; in assay [9] it was 2.4 µM; in assay [3] it was over 56.9 µM; in [4], over 57.5 µM; in assay [5], over 41 µM; in [10] it was 13.9 µM. Also, the TGI was 2.66 µM in assay [6] and over 26.5 µM in [7].
